{"source": "patent EP2876105A1", "about": "“1-(CYCLOALKYL-CARBONYL)PROLINE DERIVATIVE” (Sumitomo Dainippon Pharma Co., Ltd., priority 2012, dated 2014)", "key": {"[1]": {"assay": "Ester metabolism stabilization test: stabilization in human plasma test", "format": "in vitro ADME", "conditions": "37°C, 30 minutes", "protocol": "198 µL of human plasma (manufactured by Cosmo Bio) was added to 2 µL of a DMSO solution containing 100 µmol/L test substance, and the obtained mixture was then incubated at 37°C for 30 minutes. After completion of the incubation, 600 µL of acetonitrile was added to the reaction solution, so that the metabolic reaction was terminated. The residual percentage of the test substance was measured using LC (LC-20A manufactured by Shimadzu Corporation) and -MS (API4000 manufactured by AB Sciex)."}, "[2]": {"assay": "Ester metabolism stabilization test: human liver stabilization test", "format": "in vitro ADME", "conditions": "human liver S9 with NADPH, 37°C, 30 minutes", "protocol": "A reaction solution prepared by mixing 5 µL of human liver S9 (manufactured by Xenotech, 20 mg/mL), 20 µL of 500 mmol/L Kpi (pH7.4), 40 µL of 5 mmol/L NADPH (manufactured by Oriental Yeast Co., Ltd.) aqueous solution, and 133 µL of ion exchange water was added to 2 µL of a DMSO solution containing 100 µmol/L test substance, and the thus obtained mixture was then incubated at 37°C for 30 minutes. After completion of the incubation, 600 µL of acetonitrile was added to the reaction solution, so that the metabolic reaction was terminated. The residual percentage of the test substance was measured using LC (LC-20A manufactured by Shimadzu Corporation) and -MS (API4000 manufactured by AB Sciex)."}, "human FXIa": {"target": "human FXIa (Homo sapiens, UniProt P03951)", "sequence (P03951 388-625 limits assumed)": "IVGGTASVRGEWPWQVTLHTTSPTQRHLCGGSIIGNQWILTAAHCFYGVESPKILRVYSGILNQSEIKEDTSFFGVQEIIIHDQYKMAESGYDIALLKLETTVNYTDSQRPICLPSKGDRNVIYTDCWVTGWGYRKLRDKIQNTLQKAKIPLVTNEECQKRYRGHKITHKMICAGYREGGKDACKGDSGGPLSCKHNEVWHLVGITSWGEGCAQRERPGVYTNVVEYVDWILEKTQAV", "sequence (P03951 19-387 partner limits assumed)": "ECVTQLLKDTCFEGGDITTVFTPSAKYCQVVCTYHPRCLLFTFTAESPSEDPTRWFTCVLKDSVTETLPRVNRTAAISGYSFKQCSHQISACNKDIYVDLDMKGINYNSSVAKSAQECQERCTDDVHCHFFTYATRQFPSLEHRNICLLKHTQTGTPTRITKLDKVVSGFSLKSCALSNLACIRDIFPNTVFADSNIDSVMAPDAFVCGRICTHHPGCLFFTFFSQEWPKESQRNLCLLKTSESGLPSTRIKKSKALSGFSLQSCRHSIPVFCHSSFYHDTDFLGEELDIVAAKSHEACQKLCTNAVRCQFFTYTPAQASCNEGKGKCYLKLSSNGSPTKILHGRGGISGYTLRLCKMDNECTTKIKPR", "assay": "In vitro activated factor XI (FXIa) inhibition test", "format": "biochemical", "protocol": "To the substrate, S-2366 (pyroGlu-Pro-Arg-pNA•HCl) was added to a final concentration of 300 µmol/L. After the reaction had progressed, the absorbance at OD 405 nm was measured. […]"}, "[3]": {"test_system": "endogenous coagulation pathway", "assay": "Activated partial thromboplastin time (aPTT) of blood sample from the rabbit venous thrombus test", "format": "in vivo", "conditions": "i.v.; for aPTT: blood collected 2 minutes after administration", "protocol": "In order to measure the activated partial thromboplastin time (aPTT) of the blood sample, which was to be used as an indicator of an endogenous coagulation pathway, 2 minutes after the administration of the test agent or the vehicle, blood was collected, and plasma was then prepared using 3.2% sodium citrate. The prepared plasma was incubated at 37°C for 7 minutes, and an STA reagent Cephascreen (used for aPTT measurement; manufactured by Roche Diagnostics) was added in an equal amount to the resulting plasma, and the obtained mixture was further incubated for 3 minutes. Thereafter, STA calcium chloride (manufactured by Roche Diagnostics) was added in an equal amount to the resultant, and the time required until coagulation was then measured."}, "[4]": {"test_system": "rabbit model with venous thrombus", "assay": "Rabbit in vivo antithrombotic action evaluation test (venous thrombus model, thrombus weight)", "conditions": "i.v.", "source_text": "A rabbit model with venous thrombus was produced by modifying the report of Wienen et al. (Wienen W. et al., J. Thromb. Haemost. 5:1237-1242 (2007)). A male rabbit (JW, 2-4 kg) was narcotized by inhalation of isoflurane (ISOFLU®, manufactured by DS Pharma Animal Health) (inductive anesthesia: 4%, continuous anesthesia: 1.5% to 2.5%). For intravenous administration of a test agent and blood collection, catheters were inserted into the left femoral vein and the left femoral artery. The left external jugular vein was exposed (2 cm) from a branch of the facial vein, the microvascular branch was then ligated, and a catheter was then inserted into the posterior facial vein. The external jugular vein (2 cm) exposed from each of an anterior facial vein branch and a facial vein branch was ligated with an artery clamp, and blood was then removed from a catheter left in the posterior facial vein. Blood in the blood vessel was washed with a normal saline, and 0.5% polidocanol (manufactured by Sigma) was injected into the blood vessel. It was then left for 5 minutes, so that the occurrence of a disorder in vascular endothelium was provoked. Thereafter, 0.5% polidocanol was removed, the inside of the blood vessel was then washed with a normal saline, and the artery clamp was then removed. The external jugular vein (2 cm) exposed from the facial vein branch, together with an injection needle 21G (manufactured by Terumo), was ligated with a silk thread, so that the inner diameter of the blood vessel was reduced to 0.8 mm. Twenty-five minutes after recirculation of the blood flow, the external jugular vein (2cm) exposed from the facial vein branch was excised, and the wet weight and dry weight of a thrombus formed in the blood vessel were measured. A test agent or a vehicle was administered to the rabbit 2 minutes before recirculation of the blood flow."}, "[5]": {"conditions": "0.35 µg/mL human FXIa, substrate S-2366 300 µmol/L, 37°C, 10 minutes, OD 405 nm, read-out: FXIa inhibitory activity IC50"}}, "note": "Where two headings read alike, the source gives them in different places."}
{"compound": "N[C@H](CF)[C@H]1CC[C@H](C(=O)N2CC[C@@H](C3CCCCC3)[C@H]2C(=O)Nc2ccc3oc(C(=O)OCC4CCOCC4)cc3c2)CC1", "note": "[compound 141]", "values": [{"measurement": "Residual percentage (%) Human plasma", "setting": "[1]", "value": 94, "unit": "%"}, {"measurement": "Residual percentage (%) Human liver S9", "setting": "[2]", "value": 17, "unit": "%"}, {"measurement": "IC50", "setting": "human FXIa", "value": 3450, "unit": "nM"}]}
{"compound": "CC(C)OC(=O)OC(C)OC(=O)c1cc2cc(NC(=O)[C@@H]3[C@H](C4CCCCC4)CCN3C(=O)[C@H]3CC[C@H]([C@H](N)CF)CC3)ccc2[nH]1", "note": "(some centres unmarked) [compound 128]", "values": [{"measurement": "Residual percentage (%) Human plasma", "setting": "[1]", "value": 82, "unit": "%"}, {"measurement": "Residual percentage (%) Human liver S9", "setting": "[2]", "value": 47, "unit": "%"}]}
{"compound": "CCC(=O)OC(OC(=O)c1cc2cc(NC(=O)[C@@H]3[C@@H](c4ccccc4)CCN3C(=O)[C@H]3CC[C@H]([C@H](N)CF)CC3)ccc2[nH]1)C(C)C", "note": "(some centres unmarked) [compound 125]", "values": [{"measurement": "Residual percentage (%) Human plasma", "setting": "[1]", "value": 86, "unit": "%"}, {"measurement": "Residual percentage (%) Human liver S9", "setting": "[2]", "value": 5.6, "unit": "%"}]}
{"compound": "CC(OC(=O)OC1CCCCC1)OC(=O)c1cc2cc(NC(=O)[C@@H]3[C@@H](c4ccccc4)CCN3C(=O)[C@H]3CC[C@H]([C@H](N)CF)CC3)ccc2[nH]1", "note": "(some centres unmarked) [compound 120]", "values": [{"measurement": "Residual percentage (%) Human plasma", "setting": "[1]", "value": 65, "unit": "%"}, {"measurement": "Residual percentage (%) Human liver S9", "setting": "[2]", "value": 4.9, "unit": "%"}]}
{"compound": "COC1CCC([C@@H]2CCN(C(=O)[C@H]3CC[C@H]([C@H](N)CF)CC3)[C@@H]2C(=O)Nc2ccc3oc(C(=O)OCC(C)C)cc3c2)CC1", "note": "(some centres unmarked) [compound 201]", "values": [{"measurement": "Residual percentage (%) Human plasma", "setting": "[1]", "value": 85, "unit": "%"}, {"measurement": "Residual percentage (%) Human liver S9", "setting": "[2]", "value": 45, "unit": "%"}, {"measurement": "IC50", "setting": "human FXIa; [5]", "value": 4100, "unit": "nM"}]}
{"compound": "Cc1oc(=O)oc1COC(=O)c1cc2cc(NC(=O)[C@@H]3[C@@H](c4ccccc4)CCN3C(=O)[C@H]3CC[C@H]([C@H](N)CF)CC3)ccc2[nH]1", "note": "[compound 171]", "values": [{"measurement": "Residual percentage (%) Human plasma", "setting": "[1]", "value": "<1", "unit": "%"}, {"measurement": "Residual percentage (%) Human liver S9", "setting": "[2]", "value": 18, "unit": "%"}, {"measurement": "IC50", "setting": "human FXIa; [5]", "value": 300, "unit": "nM"}]}
{"compound": "COCCCOC(=O)c1cc2cc(NC(=O)[C@@H]3[C@H](C4CCCCC4)CCN3C(=O)[C@H]3CC[C@H]([C@H](N)CF)CC3)ccc2o1", "note": "[compound 82]", "values": [{"measurement": "Residual percentage (%) Human plasma", "setting": "[1]", "value": 92, "unit": "%"}, {"measurement": "Residual percentage (%) Human liver S9", "setting": "[2]", "value": 5.8, "unit": "%"}]}
{"compound": "CS(=O)(=O)NC(=O)c1ccc(NC(=O)[C@@H]2[C@H](C3CCCCC3)CCN2C(=O)[C@H]2CC[C@H]([C@H](N)CF)CC2)cc1", "note": "[compound 147]", "values": [{"measurement": "IC50", "setting": "human FXIa; [5]", "value": 205, "unit": "nM"}]}
{"compound": "N[C@H](CF)[C@H]1CC[C@H](C(=O)N2CC[C@@H](C3CCCCC3)[C@H]2C(=O)Nc2ccc3oc(C(=O)NS(=O)(=O)N4CCOCC4)cc3c2)CC1", "note": "[compound 212]", "values": [{"measurement": "IC50", "setting": "human FXIa", "value": 8, "unit": "nM"}]}
{"compound": "NC(CF)[C@H]1CC[C@H](C(=O)N2CC[C@@H](C3CCCCC3)[C@H]2C(=O)Nc2ccc3[nH]c(C(=O)O)c(Cl)c3c2)CC1", "note": "(some centres unmarked) [compound 34]", "values": [{"measurement": "IC50", "setting": "human FXIa; [5]", "value": 28, "unit": "nM"}]}
{"compound": "COC1CCC([C@H]2CCN(C(=O)[C@H]3CC[C@H]([C@H](N)CF)CC3)[C@H]2C(=O)Nc2ccc3oc(C(=O)O)cc3c2)CC1", "note": "(some centres unmarked) [compound 187]", "values": [{"measurement": "IC50", "setting": "human FXIa", "value": 285, "unit": "nM"}]}
{"compound": "N[C@H](CF)[C@H]1CC[C@H](C(=O)N2CC[C@@H](C3CCCCC3)[C@H]2C(=O)Nc2ccc(C(=O)NCc3ccccn3)cc2)CC1", "note": "[compound 137]", "values": [{"measurement": "IC50", "setting": "human FXIa", "value": 380, "unit": "nM"}]}
{"compound": "N[C@H](CF)[C@H]1CC[C@H](C(=O)N2CC[C@@H](C3CCCCC3)[C@H]2C(=O)Nc2ccc3[nH]c(C(=O)NS(=O)(=O)N4CCCCC4)cc3c2)CC1", "note": "[compound 213]", "values": [{"measurement": "IC50", "setting": "human FXIa; [5]", "value": 10, "unit": "nM"}]}
{"compound": "(1R)-1-([(1S)-1-(trans-4-{[(2S,3S)-3-Cyclohexyl-2-{[4-(1H-tetrazol-5-yl)phenyl]carbamoyl}pyrrolidin-1-yl]carbonyl}cyclohexyl)-2-fluoroethyl]carbamoyl}oxy)ethyl 2-methylpropanoate [Example 205]", "values": [{"measurement": "Residual percentage (%) Human plasma", "setting": "[1]", "value": 60, "unit": "%"}, {"measurement": "Residual percentage (%) Human liver S9", "setting": "[2]", "value": 3.5, "unit": "%"}]}
{"compound": "N[C@H](CF)[C@H]1CC[C@H](C(=O)N2CCC(C3CCCCC3)[C@H]2C(=O)Nc2ccc3oc(C(=O)O)cc3c2)CC1", "note": "(single isomer, unassigned) [compound 53]", "values": [{"measurement": "aPTT (% vehicle)", "setting": "[3]; dose 0.1 mg/kg", "value": 103, "unit": "%"}, {"measurement": "aPTT", "setting": "[3]; dose 0.1 mg/kg", "value": 17.8, "unit": "s"}, {"measurement": "aPTT (% vehicle)", "setting": "[3]; dose 0.3 mg/kg", "value": 117, "unit": "%"}, {"measurement": "aPTT", "setting": "[3]; dose 0.3 mg/kg", "value": 20.3, "unit": "s"}, {"measurement": "aPTT (% vehicle)", "setting": "[3]; dose 1.0 mg/kg", "value": 140, "unit": "%"}, {"measurement": "aPTT", "setting": "[3]; dose 1.0 mg/kg", "value": 24.2, "unit": "s"}, {"measurement": "aPTT (% vehicle)", "setting": "[3]; dose 3.0 mg/kg", "value": 166, "unit": "%"}, {"measurement": "aPTT", "setting": "[3]; dose 3.0 mg/kg", "value": 28.8, "unit": "s"}, {"measurement": "Thrombus (% inhibition)", "setting": "[4]; dose 0.1 mg/kg", "value": 25, "unit": "%"}, {"measurement": "Thrombus weight", "setting": "[4]; dose 0.1 mg/kg", "value": 51.3, "unit": "mg"}, {"measurement": "Thrombus (% inhibition)", "setting": "[4]; dose 0.3 mg/kg", "value": 56, "unit": "%"}, {"measurement": "Thrombus weight", "setting": "[4]; dose 0.3 mg/kg", "value": 30.3, "unit": "mg"}, {"measurement": "Thrombus (% inhibition)", "setting": "[4]; dose 1.0 mg/kg", "value": 79, "unit": "%"}, {"measurement": "Thrombus weight", "setting": "[4]; dose 1.0 mg/kg", "value": 14.7, "unit": "mg"}, {"measurement": "Thrombus (% inhibition)", "setting": "[4]; dose 3.0 mg/kg", "value": 80, "unit": "%"}, {"measurement": "Thrombus weight", "setting": "[4]; dose 3.0 mg/kg", "value": 14.0, "unit": "mg"}, {"measurement": "IC50", "setting": "human FXIa", "value": 34, "unit": "nM"}]}
{"compound": "COC1CCC([C@@H]2CCN(C(=O)[C@H]3CC[C@H]([C@H](N)CF)CC3)[C@@H]2C(=O)Nc2ccc3oc(C(=O)O)cc3c2)CC1", "note": "(some centres unmarked) [compound 103]", "values": [{"measurement": "IC50", "setting": "human FXIa; [5]", "value": 2350, "unit": "nM"}]}
{"compound": "CC(N)[C@H]1CC[C@H](C(=O)N2CC[C@H](c3ccccc3)[C@H]2C(=O)Nc2ccc3oc(C(=O)O)cc3c2)CC1", "note": "(some centres unmarked) [compound 46]", "values": [{"measurement": "IC50", "setting": "human FXIa; [5]", "value": 90, "unit": "nM"}]}
